Laboratory results as given in patent publication US8008299B2, “Urotensin II receptor antagonists” (Janssen Pharmaceutica, N.V., priority 2007, dated 2011).

Experiments:
[1] = target: T1, UT receptors in HSMM (Human Skeletal Muscle Myoblasts) (Homo sapiens, UniProt Q9UKP6); assay: Human Radioligand Binding Assay ((^125I)-U-II binding to intact HSMM)
T1 sequence (Q9UKP6 1-389): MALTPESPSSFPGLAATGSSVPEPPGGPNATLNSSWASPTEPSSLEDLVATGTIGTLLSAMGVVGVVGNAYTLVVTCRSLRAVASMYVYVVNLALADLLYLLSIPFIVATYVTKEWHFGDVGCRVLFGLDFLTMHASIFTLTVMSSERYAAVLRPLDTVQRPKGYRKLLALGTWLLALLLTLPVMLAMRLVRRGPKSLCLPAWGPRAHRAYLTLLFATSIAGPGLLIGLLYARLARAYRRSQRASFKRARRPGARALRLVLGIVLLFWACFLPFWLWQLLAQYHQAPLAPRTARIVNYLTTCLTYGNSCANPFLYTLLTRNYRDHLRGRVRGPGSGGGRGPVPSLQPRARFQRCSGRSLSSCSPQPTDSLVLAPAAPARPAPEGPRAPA

[2] = target: T2, rat GPR14 (U-II receptor) (Rattus norvegicus, UniProt P49684); assay: Rat UII Calcium Mobilization FLIPR Assay; assay type: cell-based; conditions: CHO cells transfected with rat GPR14; antagonist activity after 5 min incubation vs agonist (Ac)-CFWK(2-NaI)C-NH2 at 1 nM
T2 construct: expressed in transfected cells
T2 sequence (P49684 1-386): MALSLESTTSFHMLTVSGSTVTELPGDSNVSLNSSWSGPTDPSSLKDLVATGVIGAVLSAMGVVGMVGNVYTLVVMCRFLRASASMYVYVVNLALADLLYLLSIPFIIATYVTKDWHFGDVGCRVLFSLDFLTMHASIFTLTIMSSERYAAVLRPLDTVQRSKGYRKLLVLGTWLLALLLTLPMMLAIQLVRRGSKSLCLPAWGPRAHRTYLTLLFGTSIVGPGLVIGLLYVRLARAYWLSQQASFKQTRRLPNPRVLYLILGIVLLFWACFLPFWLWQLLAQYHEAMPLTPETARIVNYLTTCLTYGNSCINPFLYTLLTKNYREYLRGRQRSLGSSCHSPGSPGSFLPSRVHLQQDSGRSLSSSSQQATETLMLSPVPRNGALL
Excerpt: To derive these cells, the complete coding sequence of rat U-II (Genbank Accession No. U32673) was amplified by nested PCR from rat heart marathon-Ready cDNA. […] The PCR products were cloned into pcDNA3 (Invitrogen) digested with EcoR I and Xba I. Clones containing rat U-II receptor were verified by complete sequencing of the U-II receptor insert to ensure a lack of PCR-introduced errors. The constructed vector was transfected into CHO cells by using lipofectamine (GIBCO BRL). CHO cells with high expression of rat U-II receptor were selected and established as stable cell lines by using G418. CHO cells were seeded at 25,000 cells per well into 96-well, black-wall, clear-bottom microtiter plates 24 h before assay. Cells in culture media (DMEM/F12 containing 15 mM HEPES, L-glutamine, pyridoxine hydrochloride; 10% fetal bovine serum; 1 mg/mL G418 sulfate; antibiotic-antimycotic; pH 7.4) were loaded with proprietary dye, from the FLIPR Calcium Assay Kit (Molecular Devices), prepared in assay buffer (Hanks Balanced Salts Solution, 20 mM HEPES, 0.1% BSA, 2.5 mM probenecid, pH 7.4), and incubated for 1 h at 37° C. Calcium mobilization determinations were performed at room temperature (23° C.).

[3] = target: T3, Human UII (U-II receptor) in 6D9 human rhabdomyosarcoma cells (Homo sapiens, UniProt Q9UKP6); assay: Human UII Calcium Mobilization Assay; assay type: cell-based; conditions: 6D9 human rhabdomyosarcoma cells, FLIPR TETRA, average; read-out: Human UII Ca+ Mobilization Average IC50
T3 construct: 6D9: isolated by dilution subcloning of RMS13 cells, ATCC® Number: CRL-2061; host or cells: 6D9 human rhabdomyosarcoma cells (subclone of RMS13)
T3 sequence (Q9UKP6 1-389): T1 sequence (Q9UKP6 1-389)
Procedure: 25 μL of dye solution was added to the wells such that the final liquid volume before agonist/antagonist treatment was 50 μL for all assays. The cell plates were incubated at 37° C. for 45 minutes and the fluorescence intensity was measured on a Fluorometric Imaging Plate Reader (FLIPR^TETRA, Molecular Devices, Sunnyvale, Calif.).
Antagonist and agonist U-II were added at room temperature on the FLIPR^TETRA, and the fluorescence intensity before and after addition was measured over a period of 4 minutes. The dye incubation time and temperature as well as instrument setting was adjusted so the fluorescence intensity could be compared between plates on the same day. EC50 and IC50 were analyzed using GraphPad Prism 4 software (GraphPad Software Inc., San Diego, Calif.).
For assays, U-II agonist, U-II antagonist and urantide were diluted with HBSS/HEPES containing 0.01% FBS.
Test compounds were dissolved in DMSO at 10 mM concentration. The serial dilutions were carried out in HBSS/HEPES. The highest final DMSO concentration was at 0.1%.

| Compound | Ki [1] [µM] | IC50 [2] [µM] | IC50 [3] [µM] |
| --- | --- | --- | --- |
| COc1ccc([C@@H](CCCOc2ccccc2)N2Cc3c(cccc3N3CCN(Cc4ccccc4)CC3)C2=O)cc1OC [Cpd 34, 4-(4-benzyl-piperazin-1-yl)-2-[(1R)-1-(3,4-dimethoxy-phenyl)-4-phenoxy-butyl]-2,3-dihydro-isoindol-1-one] | 0.032 | 0.105 | 0.31 |
| CCN1CCN(c2cccc3c2CN([C@H](CCCNS(N)(=O)=O)c2ccc(OC)c(OC)c2)C3=O)CC1 [Cpd 58, aminosulfonic acid {(4R)-4-(3,4-dimethoxy-phenyl)-4-[4-(4-ethyl-piperazin-1-yl)-1-oxo-1,3-dihydro-isoindol-2-yl]-butyl}-amide] | 0.109 | 0.081 | 0.449 |
| COc1ccc([C@@H](CCCSc2ccccc2)N2Cc3c(cccc3N3CCNCC3)C2=O)cc1OC [Cpd 36, 2-[(1R)-1-(3,4-dimethoxy-phenyl)-4-phenylsulfanyl-butyl]-4-piperazin-1-yl-2,3-dihydro-isoindol-1-one] | 0.122 | 0.019 | 1.15 |
| CCN1CCN(c2cccc3c2CN([C@H](CCCn2cncn2)c2ccc(OC)c(OC)c2)C3=O)CC1 [Cpd 25, 2-[(1R)-1-(3,4-dimethoxy-phenyl)-4-[1,2,4]triazol-1-yl-butyl]-4-(4-ethyl-piperazin-1-yl)-2,3-dihydro-isoindol-1-one] | 0.301 | 0.145 | 2.11 |
| CCN1CCN(c2cccc3c2CN([C@H](CCCNc2nccc(OC)n2)c2ccc(OC)c(OC)c2)C3=O)CC1 [Cpd 21, 2-[(1R)-1-(3,4-dimethoxy-phenyl)-4-(4-methoxy-pyrimidin-2-ylamino)-butyl]-4-(4-ethyl-piperazin-1-yl)-2,3-dihydro-isoindol-1-one] | 0.008 | 0.004 | 0.62 |
| CCN1CCC(c2cccc3c2CN([C@H](CCCN(C)S(=O)(=O)c2cccs2)c2ccc(OC)c(OC)c2)C3=O)CC1 [Cpd 2, thiophene-2-sulfonic acid {(4R)-4-(3,4-dimethoxy-phenyl)-4-[4-(1-ethyl-piperidin-4-yl)-1-oxo-1,3-dihydro-isoindol-2-yl]-butyl}-methyl-amide] | 0.05 | 0.032 | 0.695 |
| CCN1CCN(c2cccc3c2CN([C@H](CCCNC(=O)Nc2ccccc2)c2ccc(OC)c(OC)c2)C3=O)CC1 [Cpd 66, 1-{(4R)-4-(3,4-dimethoxy-phenyl)-4-[4-(4-ethyl-piperazin-1-yl)-1-oxo-1,3-dihydro-isoindol-2-yl]-butyl}-3-phenyl-urea] | 0.084 | 0.023 | 0.842 |
| COc1ccc([C@@H](CCCN(C)c2ccccc2)N2Cc3c(cccc3N3CCNCC3)C2=O)cc1OC [Cpd 33, 2-[(1R)-1-(3,4-dimethoxy-phenyl)-4-(methyl-phenyl-amino)-butyl]-4-piperazin-1-yl-2,3-dihydro-isoindol-1-one] | 0.52 | 0.307 | 4.68 |
| CCc1ccnc(NCCC[C@H](c2ccc(OC)c(OC)c2)N2Cc3c(cccc3N3CCN(CC)CC3)C2=O)n1 [Cpd 20, 2-[(1R)-1-(3,4-dimethoxy-phenyl)-4-(4-ethyl-pyrimidin-2-ylamino)-butyl]-4-(4-ethyl-piperazin-1-yl)-2,3-dihydro-isoindol-1-one] | 0.048 | 0.034 | 0.491 |
| CCN1CCN(c2cccc3c2CN([C@H](CCCNCC(C)(C)C)c2ccc(OC)c(OC)c2)C3=O)CC1 [Cpd 75, 2-[(1R)-1-(3,4-dimethoxy-phenyl)-4-(2,2-dimethyl-propylamino)-butyl]-4-(4-ethyl-piperazin-1-yl)-2,3-dihydro-isoindol-1-one] | 0.242 | 0.037 | 2.59 |
| CCN1CCC(C(c2ccc(OC)c(OC)c2)N2Cc3c(cccc3N3CCN(CC)CC3)C2=O)CC1 (stereo not drawn) [Cpd 42, 2-[(3,4-dimethoxy-phenyl)-(1-ethyl-piperidin-4-yl)-methyl]-4-(4-ethyl-piperazin-1-yl)-2,3-dihydro-isoindol-1-one] | > 0.3 | 3.6 | > 10 |
| CCN1CCN(c2cccc3c2CN([C@H](CCCOCc2ccccc2F)c2ccc(OC)c(OC)c2)C3=O)CC1 [Cpd 51, 2-[(1R)-1-(3,4-dimethoxy-phenyl)-4-(2-fluoro-benzyloxy)-butyl]-4-(4-ethyl-piperazin-1-yl)-2,3-dihydro-isoindol-1-one] | > 0.3 | 2.55 | > 10 |

Next, values leading:

| Ki [1] [µM] | IC50 [2] [µM] | IC50 [3] [µM] | Compound |
| --- | --- | --- | --- |
| 0.026 | 0.004 | 0.056 | CCN1CCN(c2cccc3c2CN([C@H](CCCN(C)Cc2ccccc2F)c2ccc(OC)c(OC)c2)C3=O)CC1 [Cpd 97, 2-{(1R)-1-(3,4-dimethoxy-phenyl)-4-[(2-fluoro-benzyl)-methyl-amino]-butyl}-4-(4-ethyl-piperazin-1-yl)-2,3-dihydro-isoindol-1-one] |
| 0.023 | 0.005 | 0.092 | CCN1CCN(c2cccc3c2CN([C@H](CCCN(C)Cc2cccs2)c2ccc(OC)c(OC)c2)C3=O)CC1 [Cpd 95, 2-[(1R)-1-(3,4-dimethoxy-phenyl)-4-(methyl-thiophen-2-ylmethyl-amino)-butyl]-4-(4-ethyl-piperazin-1-yl)-2,3-dihydro-isoindol-1-one] |
| 0.125 | 0.082 | 0.555 | CCN1CCN(c2cccc3c2CN([C@H](CCCNc2cccc[n+]2[O-])c2ccc(OC)c(OC)c2)C3=O)CC1 [Cpd 93, 2-[(1R)-1-(3,4-dimethoxy-phenyl)-4-(1-oxy-pyridin-2-ylamino)-butyl]-4-(4-ethyl-piperazin-1-yl)-2,3-dihydro-isoindol-1-one] |
| 0.062 | 0.003 | 0.106 | CCN1CCN(c2cccc3c2CN([C@H](CCCNCc2ccc(F)cc2)c2ccc(OC)c(OC)c2)C3=O)CC1 [Cpd 91, 2-[(1R)-1-(3,4-dimethoxy-phenyl)-4-(4-fluoro-benzylamino)-butyl]-4-(4-ethyl-piperazin-1-yl)-2,3-dihydro-isoindol-1-one] |
| 0.047 | 0.004 | 0.238 | CCN1CCN(c2cccc3c2CN([C@H](CCCN(C)Cc2ccc(F)cc2)c2ccc(OC)c(OC)c2)C3=O)CC1 [Cpd 99, 2-{(1R)-1-(3,4-dimethoxy-phenyl)-4-[(4-fluoro-benzyl)-methyl-amino]-butyl}-4-(4-ethyl-piperazin-1-yl)-2,3-dihydro-isoindol-1-one] |
| 0.021 | 0.005 | 0.069 | CCN1CCN(c2cccc3c2CN([C@H](CCCN2CCc4ccccc4C2)c2ccc(OC)c(OC)c2)C3=O)CC1 [Cpd 101, 2-[(1R)-4-(3,4-dihydro-1H-isoquinolin-2-yl)-1-(3,4-dimethoxy-phenyl)-butyl]-4-(4-ethyl-piperazin-1-yl)-2,3-dihydro-isoindol-1-one] |
